The experiment addresses T1, PPARα (Homo sapiens, UniProt Q07869).
T1 construct: GAL4 (pM vector); expressed in transfected cells; host or cells: CV-1 cells (African green monkey kidney)
T1 sequence (Q07869 1-468): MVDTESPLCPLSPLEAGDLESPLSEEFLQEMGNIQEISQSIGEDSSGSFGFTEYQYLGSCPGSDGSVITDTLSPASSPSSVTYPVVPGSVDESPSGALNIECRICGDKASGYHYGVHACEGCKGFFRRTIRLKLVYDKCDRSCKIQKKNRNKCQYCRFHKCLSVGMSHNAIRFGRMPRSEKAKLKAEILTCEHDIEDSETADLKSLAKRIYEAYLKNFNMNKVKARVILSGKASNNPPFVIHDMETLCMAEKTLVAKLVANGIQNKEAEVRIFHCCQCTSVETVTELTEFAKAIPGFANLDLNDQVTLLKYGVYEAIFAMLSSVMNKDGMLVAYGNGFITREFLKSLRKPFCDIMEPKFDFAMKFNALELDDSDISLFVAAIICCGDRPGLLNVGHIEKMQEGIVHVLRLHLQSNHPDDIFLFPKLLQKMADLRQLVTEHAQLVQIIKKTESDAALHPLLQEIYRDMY
The experiment can be described thus: PPARα ligand activity, GAL4-hPPARα luciferase reporter assay in CV-1 cells. It is filed as cell-based. Conditions: for PPARα ligand activity: 24 h, relative to non-treatment control (DMSO) = 100, average ± standard error. On the procedure:
CV-1 cells (cultured cells derived from kidneys of male African green monkeys) were implanted on 24-well culture plates so as to be […] and cultured at 37° C. in 5% CO2 for 24 hours. As a medium, DMEM (Dulbecco's Modified Eagle Medium; manufactured by GIBCO) containing 10% FBS (fetal bovine serum) and a 10 mg/mL penicillin streptomycin solution was used. Using the Lipofectamine system (trade name; manufactured by Invitrogen Corporation), pM-hPPARγ and p4× UASg-tk-luc were transfected. The above-noted pM-hPPARγ was a chimeric protein-expression plasmid binding GAL4 gene (amino acid sequence 1-147) and human PPARγ ligand-binding site gene (amino acid sequence 204-505), whereas the above-noted p4× UASg-tk-luc was a reporter plasmid containing four copies of a responsive element (UAS) of GAL 4 upstream of a luciferase gene. About 24 hours after the transfection, samples of aurapten at respective concentrations (0.1, 1.0, 10, 50 and 100 μM) were added to the above-described media, followed by 24 hour incubation. The above-noted samples were prepared by dissolving aurapten in dimethyl sulfoxide (DMSO). Instead of the aurapten, DMSO was added to non-treated control media. After the incubation, measurement was made using a Dual-Luciferase Reporter Gene Assay system (trade name; manufactured by Promega Corporation).
Similarly to the measurement group, as a control group, pM (a plasmid from which PPARγ ligand-binding site gene was removed) was used for measurement instead of pM-hPPARγ. For each sample, the ratio between average luminescence intensities of the measurement group and the control group (n=4) (measurement group/control group) was calculated, and an activity relative to the non-treatment control was determined as the PPARγ ligand activity of the sample.
The PPARα ligand activity of aurapten was measured similarly to Example 1 except that pM-hPPARα was used instead of pM-hPPARγ and the aurapten concentrations were set to 0.1, 1.0, 10, 50 and 80 μM.

With `CC(C)=CCC/C(C)=C/COc1ccc2ccc(=O)oc2c1` [Aurapten, aurapten], the “effect on PPARα activity (in words)” value (0.1-80 μM, increased in keeping with the concentration) is given as “improved the activity of PPARα”. Moreover, the PPARα ligand activity reads like this: (aurapten 0.1 μM) 234 ± 39.4; (aurapten 1.0 μM) 139 ± 38.3; (aurapten 10 μM) 302 ± 98.2; (aurapten 50 μM) 409 ± 27.8; (aurapten 80 μM) 1052 ± 232.9.

Values taken from patent US8802723B2, “Metabolic syndrome-improving agent and medicine, supplement, functional food and food additive containing the same” (ARKRAY, Inc., priority 2005, dated 2014).
